US11999748B2, “Exatecan derivatives, linker-payloads, and conjugates and thereof” (priority 2021, dated 2024)

test system: high HER2 tumor cell line SK-BR-3; assay: Effect of small molecules on cell proliferation (CellTiter-Glo); type: cell-based; conditions: SK-BR-3, 120 h; (IC50 of control sample Dxd / IC50 of test sample) x 100
Method: Study Purpose: In this experiment, cell viability was detected using CellTiter-Glo to evaluate the effects of the small molecule compounds on the proliferation of a high HER2 tumor cell line SK-BR-3, and to analyze the effects of the small molecule compounds on the proliferation of tumor cells.
(4) After the drug was added, the cells were incubated in the incubator for 120 h.
(3) ATP detection: Discard the culture medium and 100 μl/well DMEM was added, 50 μl/hole CTG was added into 96-well plate, protected from light using aluminum foil and oscillated using a vortex oscillator at room temperature of 200 rpm for 10 min.
GraphPad software was used to process the data. […] If necessary, the relative biological activity of sample A, i.e., ratio activity was calculated. Dxd was used as the control sample for the ratio activity calculation. Cell proliferation inhibition rate (%)=(luminescence value of drug-treated group−luminescence value of puro group)/(luminescence value of blank control group−luminescence value of puro group)×100 Ratio activity of sample (%)=(IC50 value of the control sample/IC50 value of the test sample)×100 Ratio activity of control sample (%)=(IC50 value of the control sample/IC50 value of the previous control sample)×100

Structure (SMILES) | Ratio activity (%)
CC[C@@]1(O)C(=O)OCc2c1cc1n(c2=O)Cc2c-1nc1cc(F)c(Br)c3c1c2C(NC(=O)[C@H](C)O)CC3 (mixture of isomers) [C595] | 0.832%
CC[C@@]1(O)C(=O)OCc2c1cc1n(c2=O)Cc2c-1nc1cc(F)c(Br)c3c1c2[C@H](NC(=O)C(O)C(F)(F)F)CC3 (mixture of isomers) [C619] | 0.434%
CC[C@@]1(O)C(=O)OCc2c1cc1n(c2=O)Cc2c-1nc1cc(F)c(Br)c3c1c2[C@@H](NC(=O)C(O)C(F)(F)F)CC3 (mixture of isomers) [C620] | 0.384%
CC[C@@]1(O)C(=O)OCc2c1cc1n(c2=O)Cc2c-1nc1cc(F)c(Cl)c3c1c2C(NC(=O)[C@H](O)C1CC1)CC3 (mixture of isomers) [C624] | 0.916%
CC[C@@]1(O)C(=O)OCc2c1cc1n(c2=O)Cc2c-1nc1cc(F)c(Cl)c3c1c2C(NC(=O)C[C@H](C)O)CC3 (mixture of isomers) [C625] | 0.783%
CC[C@@]1(O)C(=O)OCc2c1cc1n(c2=O)Cc2c-1nc1cc(F)c(OC)c3c1c2C(NC(=O)CO)CC3 (mixture of isomers) [C664] | 0.269%
CC[C@@]1(O)C(=O)OCc2c1cc1n(c2=O)Cc2c-1nc1cc(F)c(OC)c3c1c2C(NC(=O)C[C@H](C)O)CC3 (mixture of isomers) [C665] | 0.495%
CC[C@@]1(O)C(=O)OCc2c1cc1n(c2=O)Cc2c-1nc1cc(F)c(OC)c3c1c2C(NC(=O)C1(O)CC1)CC3 (mixture of isomers) [C667] | 0.658%
CC[C@@]1(O)C(=O)OCc2c1cc1n(c2=O)Cc2c-1nc1cc(F)c(C)c3c1c2[C@@H](NC(=O)COCCO)CC3 [C504] | 0.703%
CC[C@@]1(O)C(=O)OCc2c1cc1n(c2=O)Cc2c-1nc1cc(F)c(Cl)c3c1c2[C@@H](NC(=O)CO)CC3 [C518, N-((1S,9S)-4-chloro-9-ethyl-5-fluoro-9-hydroxy-10,13-dioxo-2,3,9,10,13,15-hexahydro-1H,12H-benzo[de]pyrano[3′,4′:6,7]indolizino[1,2-b]quinolin-1-yl)-2-hydroxyacetamide] | 2.272%
CC[C@@]1(O)C(=O)OCc2c1cc1n(c2=O)Cc2c-1nc1cc(F)c(Cl)c3c1c2[C@H](NC(=O)CO)CC3 [C519, N-((1R,9S)-4-chloro-9-ethyl-5-fluoro-9-hydroxy-10,13-dioxo-2,3,9,10,13,15-hexahydro-1H,12H-benzo[de]pyrano[3,4′:6,7]indolizino[1,2-b]quinolin-1-yl)-2-hydroxyacetamide] | 1.059%
CC[C@@]1(O)C(=O)OCc2c1cc1n(c2=O)Cc2c-1nc1cc(F)c(C)c3c1c2[C@@H](NC(=O)[C@@H](OCCO)C1CC1)CC3 [C562] | 1.029%
CC[C@@]1(O)C(=O)OCc2c1cc1n(c2=O)Cc2c-1nc1cc(F)c(C)c3c1c2[C@@H](NC(=O)[C@H](OCCO)C1CC1)CC3 [C563] | 1.284%
CC[C@@]1(O)C(=O)OCc2c1cc1n(c2=O)Cc2c-1nc1cc(F)c(C)c3c1c2[C@@H](NC(=O)C1(OCCO)CC1)CC3 [C565] | 1.381%
CC[C@@]1(O)C(=O)OCc2c1cc1n(c2=O)Cc2c-1nc1cc(F)c(Cl)c3c1c2[C@@H](NC(=O)COCCO)CC3 [C586] | 0.259%
CC[C@@]1(O)C(=O)OCc2c1cc1n(c2=O)Cc2c-1nc1cc(F)c(Cl)c3c1c2[C@H](NC(=O)COCCO)CC3 [C587] | 0.285%
CC[C@@]1(O)C(=O)OCc2c1cc1n(c2=O)Cc2c-1nc1cc(F)c(C)c3c1c2[C@@H](NC(=O)C[C@@H](C)O)CC3 [C588] | 1.019%
CC[C@@]1(O)C(=O)OCc2c1cc1n(c2=O)Cc2c-1nc1cc(F)c(C)c3c1c2[C@@H](NC(=O)C[C@H](C)O)CC3 [C589, (S)—N-((1S,9S)-9-ethyl-5-fluoro-9-hydroxy-4-methyl-10,13-dioxo-2,3,9,10,13,15-hexahydro-1H,12H-benzo[de]pyrano[3′,4′:6,7]indolizino[1,2-b]quinolin-1-yl)-3-hydroxybutanamide] | 1.325%
CC[C@@]1(O)C(=O)OCc2c1cc1n(c2=O)Cc2c-1nc1cc(F)c(Cl)c3c1c2[C@@H](NC(=O)C1(O)CC1)CC3 [C593] | 2.514%
CC[C@@]1(O)C(=O)OCc2c1cc1n(c2=O)Cc2c-1nc1cc(F)c(Cl)c3c1c2[C@H](NC(=O)C1(O)CC1)CC3 [C594] | 0.568%
CC[C@@]1(O)C(=O)OCc2c1cc1n(c2=O)Cc2c-1nc1cc(F)c(Br)c3c1c2[C@H](NC(=O)[C@@H](C)O)CC3 [C596] | 0.911%
CC[C@@]1(O)C(=O)OCc2c1cc1n(c2=O)Cc2c-1nc1cc(F)c(Br)c3c1c2[C@@H](NC(=O)[C@@H](C)O)CC3 [C597] | 0.684%

Structure (SMILES) | Ratio activity (%)
CC[C@@]1(O)C(=O)OCc2c1cc1n(c2=O)Cc2c-1nc1cc(F)c(Br)c3c1c2[C@H](NC(=O)C[C@H](C)O)CC3 [C600] | 0.62%
CC[C@@]1(O)C(=O)OCc2c1cc1n(c2=O)Cc2c-1nc1cc(F)c(Br)c3c1c2[C@@H](NC(=O)C[C@H](C)O)CC3 [C601] | 1.826%
CC[C@@]1(O)C(=O)OCc2c1cc1n(c2=O)Cc2c-1nc1cc(F)c(Br)c3c1c2[C@H](NC(=O)C[C@@H](C)O)CC3 [C602] | 0.29%
CC[C@@]1(O)C(=O)OCc2c1cc1n(c2=O)Cc2c-1nc1cc(F)c(Br)c3c1c2[C@@H](NC(=O)C[C@@H](C)O)CC3 [C603] | 1.439%
CC[C@@]1(O)C(=O)OCc2c1cc1n(c2=O)Cc2c-1nc1cc(F)c(Cl)c3c1c2[C@@H](NC(=O)[C@@H](O)C1CC1)CC3 [C622] | 0.669%
CC[C@@]1(O)C(=O)OCc2c1cc1n(c2=O)Cc2c-1nc1cc(F)c(Cl)c3c1c2[C@@H](NC(=O)[C@H](O)C(F)(F)F)CC3 [C626] | 0.54%
CC[C@@]1(O)C(=O)OCc2c1cc1n(c2=O)Cc2c-1nc1cc(F)c(Cl)c3c1c2[C@@H](NC(=O)[C@@H](O)C(F)(F)F)CC3 [C627] | 5.054%
CC[C@@]1(O)C(=O)OCc2c1cc1n(c2=O)Cc2c-1nc1cc(F)c(Br)c3c1c2[C@H](NC(=O)CO)CC3 [C636] | 0.682%
CC[C@@]1(O)C(=O)OCc2c1cc1n(c2=O)Cc2c-1nc1cc(F)c(Br)c3c1c2[C@@H](NC(=O)CO)CC3 [C637] | 1.585%
CC[C@@]1(O)C(=O)OCc2c1cc1n(c2=O)Cc2c-1nc1cc(F)c(OC)c3c1c2C(NC(=O)[C@@H](C)O)CC3 (some centres unmarked) [C668] | 0.231%
CC[C@@]1(O)C(=O)OCc2c1cc1n(c2=O)Cc2c-1nc1cc(F)c(OC)c3c1c2C(NC(=O)C(O)C(F)(F)F)CC3 (some centres unmarked) [C671] | 0.365%
CC[C@@]1(O)C(=O)OCc2c1cc1n(c2=O)Cc2c-1nc1cc(F)c(Cl)c3c1c2[C@@H](NC(=O)[C@@H](C)O)CC3 [C677] | 1.008%
CC[C@@]1(O)C(=O)OCc2c1cc1n(c2=O)Cc2c-1nc1cc(F)c(Cl)c3c1c2[C@H](NC(=O)[C@@H](C)O)CC3 [C678] | 0.277%
CC[C@@]1(O)C(=O)OCc2c1cc1n(c2=O)Cc2c-1nc1cc(F)c(Cl)c3c1c2[C@@H](NC(=O)CCCO)CC3 [C679] | 0.49%
CC[C@@]1(O)C(=O)OCc2c1cc1n(c2=O)Cc2c-1nc1cc(F)c(Cl)c3c1c2[C@H](NC(=O)CCCO)CC3 [C680] | 0.546%
CC[C@@]1(O)C(=O)OCc2c1cc1n(c2=O)Cc2c-1nc1cc(F)c(C)c3c1c2[C@@H](NC(=O)[C@](C)(O)C(F)(F)F)CC3 [C687] | 1.835%
CC[C@@]1(O)C(=O)OCc2c1cc1n(c2=O)Cc2c-1nc1cc(F)c(C)c3c1c2[C@@H](NC(=O)[C@@](C)(O)C(F)(F)F)CC3 [C688] | 0.744%
CC[C@@]1(O)C(=O)OCc2c1cc1n(c2=O)Cc2c-1nc1cc(F)c(Cl)c3c1c2[C@H](NC(=O)[C@](C)(O)C(F)(F)F)CC3 [C703] | 0.846%
CC[C@@]1(O)C(=O)OCc2c1cc1n(c2=O)Cc2c-1nc1cc(F)c(Cl)c3c1c2[C@@H](NC(=O)[C@](C)(O)C(F)(F)F)CC3 [C704] | 2.271%
CC[C@@]1(O)C(=O)OCc2c1cc1n(c2=O)Cc2c-1nc1cc(F)c(Cl)c3c1c2[C@@H](N)CC3 [C730] | 1.35%
CC[C@@]1(O)C(=O)OCc2c1cc1n(c2=O)Cc2c-1nc1cc(F)c(Cl)c3c1c2[C@H](N)CC3 [C731] | 0.82%
CC[C@@]1(O)C(=O)OCc2c1cc1n(c2=O)Cc2c-1nc1cc(F)c(C)c3c1c2[C@@H](NC(=O)CO)CC3 [Dxd, reference compound] | 1%
